Key:
D(2) dopamine receptor [1] = target: T1, D(2) dopamine receptor (Homo sapiens, UniProt P14416)
Description: Binding affinity to dopamine D2 receptor (unknown origin)

[2] = target: T2, 5-hydroxytryptamine receptor 2A (Homo sapiens, UniProt P28223)
Histamine H1 receptor = Histamine H1 receptor (Homo sapiens, UniProt P35367); assay type: ADME
Description: Binding affinity to histamine H1 receptor (unknown origin)

D(3) dopamine receptor = D(3) dopamine receptor (Homo sapiens, UniProt P35462)
Description: Binding affinity to dopamine D3 receptor (unknown origin)

[3] = target: T3, 5-hydroxytryptamine receptor 1A (Homo sapiens, UniProt P08908)
T3 sequence (P08908 whole entry): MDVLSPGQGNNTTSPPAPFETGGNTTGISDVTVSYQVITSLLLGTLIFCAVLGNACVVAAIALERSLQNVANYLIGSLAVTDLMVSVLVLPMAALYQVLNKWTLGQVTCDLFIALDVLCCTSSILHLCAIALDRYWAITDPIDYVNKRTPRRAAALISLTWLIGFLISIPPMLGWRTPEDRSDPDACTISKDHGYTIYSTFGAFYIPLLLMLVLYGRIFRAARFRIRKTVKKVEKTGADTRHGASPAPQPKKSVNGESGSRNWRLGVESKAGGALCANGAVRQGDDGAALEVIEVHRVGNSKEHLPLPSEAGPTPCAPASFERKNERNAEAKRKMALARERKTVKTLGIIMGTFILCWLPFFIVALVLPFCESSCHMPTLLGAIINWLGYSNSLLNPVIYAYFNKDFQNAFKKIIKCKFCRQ

[4] = target: T4, 5-hydroxytryptamine receptor 2C (Homo sapiens, UniProt P28335)
T4 sequence (P28335 whole entry): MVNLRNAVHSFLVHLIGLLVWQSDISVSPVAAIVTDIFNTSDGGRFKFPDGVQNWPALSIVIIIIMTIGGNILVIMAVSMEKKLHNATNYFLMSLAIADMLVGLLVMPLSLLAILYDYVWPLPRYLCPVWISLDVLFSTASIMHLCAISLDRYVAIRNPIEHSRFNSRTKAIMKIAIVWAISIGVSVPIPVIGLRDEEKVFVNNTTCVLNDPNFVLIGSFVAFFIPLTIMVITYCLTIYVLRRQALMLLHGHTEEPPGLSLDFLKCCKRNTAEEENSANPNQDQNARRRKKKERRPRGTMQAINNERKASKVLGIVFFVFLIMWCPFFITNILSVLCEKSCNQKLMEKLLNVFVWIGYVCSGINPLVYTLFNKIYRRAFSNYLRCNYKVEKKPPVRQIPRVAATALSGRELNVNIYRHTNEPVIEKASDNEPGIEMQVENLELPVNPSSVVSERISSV

[5] = target: 5-hydroxytryptamine receptor 6 (Homo sapiens, UniProt P50406)
Sequence of 5-hydroxytryptamine receptor 6 (P50406 whole entry): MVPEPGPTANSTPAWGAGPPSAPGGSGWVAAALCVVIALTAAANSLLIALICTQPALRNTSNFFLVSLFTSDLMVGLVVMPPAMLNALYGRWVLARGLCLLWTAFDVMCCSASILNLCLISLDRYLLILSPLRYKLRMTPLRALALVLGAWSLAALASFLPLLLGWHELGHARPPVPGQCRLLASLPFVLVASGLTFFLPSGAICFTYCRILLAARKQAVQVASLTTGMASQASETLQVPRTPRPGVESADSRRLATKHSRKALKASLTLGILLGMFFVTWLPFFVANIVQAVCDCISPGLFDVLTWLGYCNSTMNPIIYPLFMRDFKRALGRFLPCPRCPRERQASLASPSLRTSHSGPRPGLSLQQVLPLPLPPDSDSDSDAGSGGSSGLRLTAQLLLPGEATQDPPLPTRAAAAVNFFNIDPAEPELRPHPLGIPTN

[6] = target: T5, Alpha-1A adrenergic receptor (Homo sapiens, UniProt P35348)
T5 sequence (P35348 whole entry): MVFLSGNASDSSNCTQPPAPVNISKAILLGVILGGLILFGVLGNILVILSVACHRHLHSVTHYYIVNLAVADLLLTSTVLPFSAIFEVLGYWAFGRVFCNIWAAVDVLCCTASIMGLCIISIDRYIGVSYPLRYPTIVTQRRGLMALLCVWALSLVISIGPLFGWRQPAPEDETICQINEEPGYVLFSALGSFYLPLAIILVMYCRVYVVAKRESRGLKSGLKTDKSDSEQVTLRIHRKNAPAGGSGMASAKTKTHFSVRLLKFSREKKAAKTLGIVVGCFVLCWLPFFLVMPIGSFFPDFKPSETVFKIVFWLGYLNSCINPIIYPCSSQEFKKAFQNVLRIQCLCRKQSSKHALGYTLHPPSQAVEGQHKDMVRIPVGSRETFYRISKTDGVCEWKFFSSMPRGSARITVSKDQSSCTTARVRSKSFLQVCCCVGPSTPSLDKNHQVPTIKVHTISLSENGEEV
Description: Binding affinity to alpha1 adrenoceptor (unknown origin)

Histamine H3 receptor = Histamine H3 receptor (Homo sapiens, UniProt Q9Y5N1)
Sequence of Histamine H3 receptor (Q9Y5N1 whole entry): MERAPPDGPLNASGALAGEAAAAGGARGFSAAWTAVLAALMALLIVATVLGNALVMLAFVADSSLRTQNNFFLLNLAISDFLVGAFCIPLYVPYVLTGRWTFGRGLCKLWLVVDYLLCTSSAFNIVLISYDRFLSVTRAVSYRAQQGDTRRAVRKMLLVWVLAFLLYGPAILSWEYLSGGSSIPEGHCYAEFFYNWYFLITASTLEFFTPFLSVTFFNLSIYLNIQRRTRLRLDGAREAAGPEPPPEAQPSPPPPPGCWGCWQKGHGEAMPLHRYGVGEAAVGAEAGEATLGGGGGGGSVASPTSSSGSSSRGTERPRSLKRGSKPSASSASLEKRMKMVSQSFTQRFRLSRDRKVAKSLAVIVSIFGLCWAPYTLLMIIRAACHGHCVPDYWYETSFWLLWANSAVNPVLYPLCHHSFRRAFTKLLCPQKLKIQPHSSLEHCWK
Description: Binding affinity to histamine H3 receptor (unknown origin)

[7] = target: Voltage-gated inwardly rectifying potassium channel KCNH2 (Homo sapiens, UniProt Q12809)
Sequence of Voltage-gated inwardly rectifying potassium channel KCNH2 (Q12809 whole entry): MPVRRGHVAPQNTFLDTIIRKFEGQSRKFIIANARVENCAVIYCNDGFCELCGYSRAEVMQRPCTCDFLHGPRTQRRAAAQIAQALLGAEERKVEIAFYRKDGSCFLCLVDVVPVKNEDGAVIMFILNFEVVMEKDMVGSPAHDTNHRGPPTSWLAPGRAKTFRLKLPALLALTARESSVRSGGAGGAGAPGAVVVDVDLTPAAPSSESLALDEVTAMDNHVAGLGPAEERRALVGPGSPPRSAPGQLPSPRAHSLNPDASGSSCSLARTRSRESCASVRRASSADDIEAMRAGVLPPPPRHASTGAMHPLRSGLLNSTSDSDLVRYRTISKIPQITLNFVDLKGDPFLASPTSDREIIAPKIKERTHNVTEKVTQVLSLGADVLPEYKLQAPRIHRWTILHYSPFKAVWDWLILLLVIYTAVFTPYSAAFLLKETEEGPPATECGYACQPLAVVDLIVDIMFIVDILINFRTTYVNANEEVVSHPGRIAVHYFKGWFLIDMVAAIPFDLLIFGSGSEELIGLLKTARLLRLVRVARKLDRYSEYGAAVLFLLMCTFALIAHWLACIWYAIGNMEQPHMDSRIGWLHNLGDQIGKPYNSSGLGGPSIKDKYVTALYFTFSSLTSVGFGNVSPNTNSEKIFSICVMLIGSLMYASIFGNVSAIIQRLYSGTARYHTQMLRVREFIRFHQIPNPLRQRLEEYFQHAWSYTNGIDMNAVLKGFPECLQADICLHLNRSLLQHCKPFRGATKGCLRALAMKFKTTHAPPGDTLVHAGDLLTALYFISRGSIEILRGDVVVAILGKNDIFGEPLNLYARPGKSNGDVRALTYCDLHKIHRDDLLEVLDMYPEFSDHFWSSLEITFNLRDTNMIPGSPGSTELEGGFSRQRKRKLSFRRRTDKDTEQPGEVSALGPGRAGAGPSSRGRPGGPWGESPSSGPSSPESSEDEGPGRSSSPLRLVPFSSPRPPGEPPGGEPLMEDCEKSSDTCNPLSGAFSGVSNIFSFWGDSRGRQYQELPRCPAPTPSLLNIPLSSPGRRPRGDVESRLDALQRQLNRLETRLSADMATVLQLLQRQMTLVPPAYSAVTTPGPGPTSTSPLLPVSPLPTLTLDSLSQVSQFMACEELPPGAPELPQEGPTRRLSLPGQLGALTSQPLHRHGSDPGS
Description: Inhibition of human ERG by automated patch method relative to control

D(2) dopamine receptor [8] = target: T1, D(2) dopamine receptor; experiment: Antagonist activity at D2 receptor (unknown origin); assay type: functional
[9] = target: T3, 5-hydroxytryptamine receptor 1A; experiment: Antagonist activity at 5-HT1A receptor (unknown origin); assay type: functional
[10] = target: T2, 5-hydroxytryptamine receptor 2A; experiment: Antagonist activity at 5-HT2A receptor (unknown origin); assay type: functional
[11] = Therapeutic index, ratio of ED50 for induction of catalepsy in po dosed mouse to ED50 for antipsychotic activity in po dosed mouse assessed as suppression of apomorphine-induced climbing; assay type: toxicity, organism-based; details: in vivo, read-out: Ratio ED50
[12] = Therapeutic index, ratio of ED50 for induction of catalepsy in po dosed mouse to ED50 for antipsychotic activity in po dosed mouse assessed as reduction in MK-801-induced hyperlocomotor activity; assay type: toxicity, organism-based; details: in vivo, read-out: Ratio ED50
[13] = mouse, in vivo, po
Description: Induction of catalepsy in po dosed mouse by Horizontal grid and elevated bar test

Mus musculus [14] = species: Mus musculus; experiment: animal or person; details: po
Description: Antipsychotic activity in po dosed mouse assessed as suppression of apomorphine-induced climbing behaviour

Mus musculus [15] = species: Mus musculus; experiment: animal or person; details: po; remark: listed apart in the source
Description: Antipsychotic activity in po dosed mouse assessed as reduction in MK-801-induced hyperlocomotor activity

Rattus norvegicus = species: Rattus norvegicus; experiment: animal or person; details: po
Description: Antipsychotic activity in po dosed rat assessed as suppression in conditioned avoidance response by CAR test

Sequence of Histamine H1 receptor (P35367 whole entry): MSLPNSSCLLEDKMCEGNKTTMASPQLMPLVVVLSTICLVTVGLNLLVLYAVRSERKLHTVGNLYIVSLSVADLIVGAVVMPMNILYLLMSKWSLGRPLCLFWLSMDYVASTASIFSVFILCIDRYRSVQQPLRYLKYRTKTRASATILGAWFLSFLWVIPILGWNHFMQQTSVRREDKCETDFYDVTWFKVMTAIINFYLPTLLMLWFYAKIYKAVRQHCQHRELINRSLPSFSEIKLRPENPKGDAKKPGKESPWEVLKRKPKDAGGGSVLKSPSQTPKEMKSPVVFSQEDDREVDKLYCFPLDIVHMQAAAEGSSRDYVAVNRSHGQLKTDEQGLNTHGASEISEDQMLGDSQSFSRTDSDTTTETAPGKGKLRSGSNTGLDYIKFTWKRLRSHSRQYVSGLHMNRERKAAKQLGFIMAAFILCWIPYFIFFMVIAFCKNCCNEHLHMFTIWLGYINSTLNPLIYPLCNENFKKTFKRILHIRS
T1 sequence (P14416 whole entry): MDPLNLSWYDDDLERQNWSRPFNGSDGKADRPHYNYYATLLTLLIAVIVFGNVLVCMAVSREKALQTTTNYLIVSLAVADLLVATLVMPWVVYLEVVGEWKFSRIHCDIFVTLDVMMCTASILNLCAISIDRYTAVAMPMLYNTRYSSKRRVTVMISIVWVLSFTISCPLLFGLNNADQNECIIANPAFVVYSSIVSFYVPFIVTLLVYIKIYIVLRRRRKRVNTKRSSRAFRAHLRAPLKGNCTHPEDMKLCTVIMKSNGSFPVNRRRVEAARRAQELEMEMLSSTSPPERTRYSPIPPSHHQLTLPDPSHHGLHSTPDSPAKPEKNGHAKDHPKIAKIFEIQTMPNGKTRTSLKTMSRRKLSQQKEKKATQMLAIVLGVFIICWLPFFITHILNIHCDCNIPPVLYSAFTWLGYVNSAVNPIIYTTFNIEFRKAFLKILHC
T2 sequence (P28223 whole entry): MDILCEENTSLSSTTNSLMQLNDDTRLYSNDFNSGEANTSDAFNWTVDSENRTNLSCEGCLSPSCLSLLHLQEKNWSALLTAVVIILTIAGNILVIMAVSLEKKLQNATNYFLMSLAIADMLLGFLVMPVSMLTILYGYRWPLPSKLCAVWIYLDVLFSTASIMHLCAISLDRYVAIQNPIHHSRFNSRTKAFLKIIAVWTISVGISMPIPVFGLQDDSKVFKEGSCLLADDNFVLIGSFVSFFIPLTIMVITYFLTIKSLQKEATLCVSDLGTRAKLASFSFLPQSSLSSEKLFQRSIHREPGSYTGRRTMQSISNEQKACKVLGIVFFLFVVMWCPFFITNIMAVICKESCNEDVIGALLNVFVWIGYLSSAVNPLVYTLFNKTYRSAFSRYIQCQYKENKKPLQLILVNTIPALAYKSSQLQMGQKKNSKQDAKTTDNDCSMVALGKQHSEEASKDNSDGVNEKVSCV
Sequence of D(3) dopamine receptor (P35462 whole entry): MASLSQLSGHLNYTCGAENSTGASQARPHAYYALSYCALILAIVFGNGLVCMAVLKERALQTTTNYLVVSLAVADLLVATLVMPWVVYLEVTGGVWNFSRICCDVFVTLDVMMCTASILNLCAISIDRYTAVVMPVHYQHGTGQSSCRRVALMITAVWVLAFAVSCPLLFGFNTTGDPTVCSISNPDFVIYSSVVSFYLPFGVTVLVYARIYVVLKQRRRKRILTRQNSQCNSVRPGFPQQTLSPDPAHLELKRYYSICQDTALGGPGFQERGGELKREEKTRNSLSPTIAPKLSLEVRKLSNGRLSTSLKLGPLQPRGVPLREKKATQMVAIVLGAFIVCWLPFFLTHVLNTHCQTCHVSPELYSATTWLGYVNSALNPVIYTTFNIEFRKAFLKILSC

| Ki (D(2) dopamine receptor [1]) [µM] | Ki [2] [µM] | Ki [3] [µM] | Ki (Histamine H3 receptor) [µM] | SMILES | further results |
| --- | --- | --- | --- | --- | --- |
| 0.0026 | 0.0003 | 0.0033 |  | Cc1cc(=O)oc2c(Cl)c(OCCCCN3CCC(c4noc5cc(F)ccc45)CC3)ccc12 | Ki (Histamine H1 receptor): 1.13 µM; Ki (D(3) dopamine receptor): 0.0043 µM; Ki [4]: 1.7 µM; Ki [5]: 0.228 µM; Ki [6]: 2.57 µM |
| 0.005 | 0.0003 | 0.0059 |  | O=c1ccc(OCCCN2CCC(c3noc4cc(F)ccc34)CC2)nn1-c1c(F)cccc1F | Ki (Histamine H1 receptor): 2 µM; Ki (D(3) dopamine receptor): 0.0357 µM; Ki [4]: 1.58 µM; Ki [6]: 0.337 µM |
| 0.0029 | 0.0007 | 0.0086 |  | O=C(CCCN1CCC(c2noc3cc(F)ccc23)CC1)c1cc2c3c(c1)CCN3C(=O)CC2 | Ki (Histamine H1 receptor): 0.63 µM; Ki (D(3) dopamine receptor): 0.0017 µM; Ki [4]: 0.616 µM; Ki [5]: 0.0056 µM; Ki [6]: 0.0431 µM |
| 0.0019 | 0.0043 | 0.0124 | 0.0092 | CN1CCN(Cc2ccc(OCCCCN3CCC(c4noc5cc(F)ccc45)CC3)cc2)CC1 | Ki (Histamine H1 receptor): 0.642 µM; Ki (D(3) dopamine receptor): 0.0376 µM; Ki [4]: 0.426 µM; Ki [5]: 0.123 µM; Ki [6]: 0.354 µM; IC50 [7]: 1.06 µM |
| 0.0122 | 0.0086 | 0.0816 | 0.0937 | Fc1ccc2c(C3CCN(CCCOc4ccc(CN5CCCC5)cc4)CC3)noc2c1 |  |
| 0.0025 | 0.0057 | 0.105 | 0.149 | Fc1ccc2c(C3CCN(CCCOc4ccc(CN5CCOCC5)cc4Cl)CC3)noc2c1 |  |
| 0.002 | 0.0045 | 0.0954 | 0.153 | Fc1ccc2c(C3CCN(CCCCOc4ccc(CN5CCOCC5)cc4)CC3)noc2c1 |  |
| 0.0126 | 0.0115 | 0.0893 | 0.113 | Cc1cc(OCCCN2CCC(c3noc4cc(F)ccc34)CC2)ccc1CN1CCCC1 |  |
|  | 0.0086 | 0.0164 | 0.271 | CN1CCN(CCc2ccc(OCCCN3CCC(c4noc5cc(F)ccc45)CC3)cc2)CC1 |  |
| 0.0103 | 0.0065 | 0.0906 | 0.27 | Fc1ccc2c(C3CCN(CCCOc4ccc(CN5CCCCC5)cc4F)CC3)noc2c1 |  |
| 0.0019 | 0.0056 | 0.1 | 0.195 | Fc1ccc2c(C3CCN(CCCOc4ccc(CN5CCOCC5)cc4F)CC3)noc2c1 |  |
| 0.0074 | 0.0429 | 0.0096 | 0.0119 | CC1CCN(CCc2ccc(OCCCN3CCC(c4noc5cc(F)ccc45)CC3)cc2)CC1 |  |
| 0.0097 | 0.0094 | 0.0074 | 0.0134 | Fc1ccc2c(C3CCN(CCCOc4ccc(CCN5CCCCC5)cc4)CC3)noc2c1 | Ki (Histamine H1 receptor): 1.02 µM; Ki (D(3) dopamine receptor): 0.0152 µM; Ki [4]: 0.753 µM; Ki [5]: 0.149 µM; Ki [6]: 0.536 µM; IC50 [7]: 2.29 µM |
| 0.0027 | 0.0051 | 0.0044 | 0.0158 | CC1CCN(CCc2ccc(OCCCCN3CCC(c4noc5cc(F)ccc45)CC3)cc2)CC1 |  |
| 0.0054 | 0.0063 | 0.152 | 0.163 | Fc1ccc2c(C3CCN(CCCOc4ccc(CN5CCOCC5)c(Cl)c4)CC3)noc2c1 |  |
| 0.0108 | 0.0051 | 0.0897 | 0.27 | Fc1ccc2c(C3CCN(CCCOc4ccc(CN5CCCCC5)cc4)CC3)noc2c1 |  |
| 0.0017 | 0.0047 | 0.0119 | 0.0082 | CN1CCN(Cc2ccc(OCCCN3CCC(c4noc5cc(F)ccc45)CC3)cc2)CC1 | Ki (Histamine H1 receptor): 0.719 µM; Ki (D(3) dopamine receptor): 0.0232 µM; Ki [4]: 0.573 µM; Ki [5]: 0.0933 µM; Ki [6]: 0.332 µM; IC50 [7]: 1.56 µM |
| 0.0105 | 0.0084 | 0.0056 |  | Fc1ccc2c(C3CCN(CCCOc4ccc(CCN5CCOCC5)cc4)CC3)noc2c1 | Ki (Histamine H1 receptor): 0.968 µM; IC50 (D(2) dopamine receptor [8]): 0.0113 µM; IC50 [9]: 0.247 µM; IC50 [10]: 0.186 µM; Ki [4]: 0.61 µM; Ki [5]: 0.141 µM; Ki [6]: 0.438 µM; IC50 [7]: 2.41 µM |
| 0.0095 | 0.009 | 0.0677 | 0.256 | COc1cc(CN2CCCCC2)ccc1OCCCN1CCC(c2noc3cc(F)ccc23)CC1 |  |
| 0.0015 | 0.0044 | 0.0855 | 0.166 | Fc1ccc2c(C3CCN(CCCOc4ccc(CN5CCOCC5)cc4)CC3)noc2c1 |  |
| 0.0026 | 0.0049 | 0.112 | 0.147 | COc1cc(CN2CCOCC2)ccc1OCCCN1CCC(c2noc3cc(F)ccc23)CC1 |  |
| 0.0116 | 0.0062 | 0.0921 | 0.312 | Fc1ccc2c(C3CCN(CCCOc4ccc(CN5CCCCC5)c(F)c4)CC3)noc2c1 |  |
| 0.0062 | 0.0108 | 0.0779 | 0.151 | COc1cc(CN2CCCC2)ccc1OCCCN1CCC(c2noc3cc(F)ccc23)CC1 |  |
| 0.0031 | 0.0051 | 0.1 | 0.164 | Cc1cc(OCCCN2CCC(c3noc4cc(F)ccc34)CC2)ccc1CN1CCOCC1 |  |
| 0.002 | 0.0052 | 0.0922 | 0.187 | Fc1ccc2c(C3CCN(CCCOc4ccc(CN5CCOCC5)c(F)c4)CC3)noc2c1 |  |
| 0.0141 | 0.0101 | 0.0792 | 0.125 | Fc1ccc2c(C3CCN(CCCOc4ccc(CN5CCCC5)cc4Cl)CC3)noc2c1 |  |
|  |  |  |  | O=C(CCCN1CCC(O)(c2ccc(Cl)cc2)CC1)c1ccc(F)cc1 [HALOPERIDOL] | selectivity ratio [11]: 3.6; selectivity ratio [12]: 2.9; ED50 [13]: 0.3 mg/kg; ED50 (Mus musculus [14]): 0.09 mg/kg; ED50 (Mus musculus [15]): 0.1 mg/kg |
|  |  |  |  | Cc1nc2n(c(=O)c1CCN1CCC(c3noc4cc(F)ccc34)CC1)CCCC2 [RISPERIDONE] | ED50 [13]: 1.6 mg/kg; ED50 (Mus musculus [14]): 0.02 mg/kg; ED50 (Mus musculus [15]): 0.04 mg/kg; ED50 (Rattus norvegicus): 0.6 mg/kg |
